Experimental data taken from patent US20240099951A1, “HAIR GROWTH STIMULANT” (ADJUVANT HOLDINGS CO., LTD., priority 2020, published 2024).

Assays:
[1] = system: hair groups derived from C57BL/6N dorsal body hair skin transplanted in Balb/c nu/nu mice; test: Evaluation of hair-diameter-increasing activity (hair shafts grown after third cycle of Exemplary Test 1); assay type: in vivo
Protocol: Dorsal body hair skin was collected from C57BL/6N mice (SLC) of age 7 to 8 weeks in accordance with a procedure similar to that at Exemplary Test 1, above, the drug being applied after the hair groups derived from the dorsal body hair skin that had been fabricated were transplanted in Balb/c nu/nu mice (SLC) of age 4 to 6 weeks. Testing and breeding of animals complied with pertinent laws, regulations, ordinances, and guidelines, and was performed with the approval of the Experimental Ethics Review Board of the Institute of Physical and Chemical Research. The following three solutions were used during testing. • 60% aqueous ethanol solution • 5% minoxidil solution • 1% phytosphingosine solution Measurement of increase in hair diameter was carried out using hair shafts which had grown following completion of the third cycle at Exemplary Test 1. Of the hair shafts that were collected, two zigzag hairs were used. Three locations were selected in regions where diameter was large in the central portions thereof using a square 100 μm on a side. Measurement of selected regions was carried out at five locations. Hairs as they existed following application of the drug were used for measurement of hair shaft diameter.

VEGF gene = test: Human dermal papilla cell VEGF gene expression (real-time PCR); assay type: cell-based; conditions: 72 hours; for amount of expression of the VEGF gene as compared with the control group: human dermal papilla cells
Protocol: Human dermal papilla cells (Catalog No. CA602t05a; derived from person; Toyobo Co., Ltd. (Japan)) were purchased, testing and evaluation being carried out with maintenance and culture of cells being performed as described in the protocol.
As drugs for testing, drug solutions of the following respective concentrations (final concentrations) were prepared and used. • Comparative Example 5: 30 μM minoxidil • Comparative Example 6: 100 μM adenosine • Working Example 3: 0.3125 μM phytosphingosine • Working Example 4: 1.25 μM phytosphingosine
A 24-well plate was seeded with human dermal papilla cells so as to obtain 6×10^3 thereof per well. Following culture for 1 day within a CO2 incubator (5% CO2; 37° C.), the culture medium was replaced with culture medium which contained the respective drugs for testing. The cell plate was thereafter returned to the CO2 incubator, and this was further cultured for 72 hours. Following culture, total RNA was extracted from the respective wells and was recovered, and this was reverse-transcribed into cDNA. The cDNA that was prepared was used to measure VEGF gene expression in accordance with the real-time PCR method. The GAPDH gene was used as an internal standard, the amount of VEGF gene expression being calculated relative to the negative control group. […]
300 μL of lysis buffer RL was added thereto per well, and the cells were lysed by pipetting. […] Concentration of the recovered RNA was measured using a NanoDrop Lite (Catalog No. ND-LITE; Thermo Fisher Scientific K.K.), and this was stored at −80° C. until the following cDNA creation procedure.
A FastGene scriptase II cDNA synthesis 5X Ready Mix (Catalog No. NE-LS64; Nippon Genetics Co., Ltd. (Japan)) was used to synthesize cDNA. Dilution with RNase Free Water was carried out so as to cause concentration of total RNA produced in a new tube to be 20 ng/mL, 4 μL of FastGene scriptase II cDNA synthesis 5X Ready Mix was added to 16 μL of this sample solution, and this was agitated by vortexing. […]

Structure (SMILES): CCCCCCCCCCCCCC[C@@H](O)[C@@H](O)[C@@H](N)CO [phytosphingosine]
- Hair shaft diameter ([1]; 1% phytosphingosine solution applied, hair shafts after third cycle): 20.15 μm
- hair shaft diameter as percent of control ([1]; 1% phytosphingosine solution vs 60% aqueous ethanol solution): 127%
- amount of expression of the VEGF gene as compared with the control group (VEGF gene; 0.3125 μM phytosphingosine (Working Example 3)): increase
- amount of expression of the VEGF gene as compared with the control group (VEGF gene; 1.25 μM phytosphingosine (Working Example 4)): increase
- amount of expression of the VEGF gene compared with 30 μM minoxidil (Comparative Example 5) or 100 μM adenosine (Comparative Example 6) (VEGF gene; increased amount of phytosphingosine added): greater
